What all share (format): cell-based
Assay [1] deals with E. faecalis cra4024 (EF 01). From the text:
(§1) The experimental scheme reported in Figure 6 helped to simplify and optimize the in vitro testing of the antibacterial activity of the different AMPs. The initial transparent microtiter plate for the determination of the minimum inhibitory concentration (MIC) by optical density (OD) measurement was conveniently used as a starting point not only for the alterative determination of the MIC by luminescence but also for the minimum bactericidal concentration (MBC) and for the minimum biofilm inhibitory concentration (MBIC), as explained below. For every test peptide, at least three independent experiments were performed on each bacterial strain per test condition (100% MHB and 20% MHB). The sole exception to this rule was when MIC values were on rare occasions found to be greater than 500 µg/mL. Under these circumstances, two consecutive experiments were performed to confirm the results. In this case, the antibacterial activity was considered insignificant and the third experiment was generally considered unnecessary.
(§2) The antibacterial properties of the test AMPs were assayed under two distinct conditions of bacterial culture: (i) with bacteria cultured in undiluted Mueller–Hinton II Broth (MHB II) and (ii) with bacteria cultured in diluted MHB II as earlier described in Campoccia et al.. Briefly, a few colonies of each bacterial strain, taken from overnight cultures on Mueller–Hinton Agar plates (MHA, PO50007A, ThermoScientific, Thermo Fisher Scientific, Segrate, Italy), were resuspended in Mueller–Hinton II Broth (MHB II, 24107, Liofilchem, Roseto degli Abruzzi, Italy), either undiluted or at a 20% dilution in deionized water. The concentration of bacteria was adjusted to approximately 10^8 CFU/mL, as estimated by optical density reading at 625 nm, using a Hewlett Packard G1103A spectrophotometer (Waldbronn, Germany). The bacterial suspension was further diluted 1:100 in 100% or 20% MHB II.
(§3) Serial 1:2 dilutions of all the test peptides were prepared in sterile deionized water starting from a stock solution of 1 mg/mL. Microtiter plates (96-Well CytoOne® Plate, CC7672-7596, Starlab S.r.l., Milano, Italy) were prepared by adding a volume of 100 µL of inoculum to 100 µL of treatment. Each AMP dilution was assayed in triplicate; each microplate included triplicate wells for the blank (100 µL of sterile distilled water and 100 µL of sterile MHB II), and 3 to 6 wells for reference control of 100% growth (100 µL of sterile deionized water and 100 µL of MHB II inoculated with the bacterium). Positive controls were performed in triplicate wells with 100 µL of a 10 mg/mL gentamicin solution (G1272, Sigma Aldrich, Milan, Italy) and with 100 µL of a solution containing 10,000 units/mL of penicillin and 10,000 µg/mL of streptomycin (penicillin–streptomycin, 15140-122, Life Technologies, Monza, Italy).
(§4) After a 1-day incubation at 37 °C, the MIC was determined by two distinct methods: (1) optical density measurement and (2) bioluminescence reading. In the first case, the optical density of the microtiter plates was read directly at a wavelength of 600 nm and the MIC was estimated from the curves obtained by plotting the OD measurements. For the bioluminescence reading, after gentle resuspension, 100 µL of each treated culture was transferred to a new 96-well non-treated plate (236105/237105, Life Technologies, Monza, Italy) and the metabolic activity was determined by the kit Bac-Titer Glo Microbial Cell Viability Assay (G8231, Promega Italia S.r.l, Milan, Italy). Optical density and bioluminescence were read by a Modulus II multifunction plate reader (Turner BioSystems, Sunnyvale, CA, USA) or, alternatively, by an Infinite M Plex (Tecan Group Ltd., Männedorf, Switzerland). As earlier described in [24], in the case of luminescence, the MIC was identified from the curves of growth inhibition as the first concentration leading to a 1-log reduction in bacterial growth (i.e., 90% growth inhibition). […]

The test system of assay [2] is S. epidermidis cra4029 (SE 02).
From the text: as §1, §2, §3, §4

The test system of assay [3] is S. aureus cra2198 (SA 02).
From the text: as §1, §2, §3, §4

In assay [4] the test system is E. faecalis cra4033 (EF 02).
From the text: as §1, §2, §3, §4

Another assay concerns entire panel of strains. Kind of assay: MBC, all strains of the panel. Conditions: undiluted MHB II, re-tested plating 10 μL. The method, then:
For assessing the MBC, 10 μL of bacterial suspensions was taken from wells corresponding to MIC, 2× MIC, and 4× MIC and then plated on MHA plates. After one day of incubation at 37 °C, the agar plates were examined for bacterial growth. The MBC was determined as the lowest dilution causing absence of bacterial colonies growth on the plate.

Assay [5] concerns E. faecalis cra4024 (EF 01).
From the text: as §1, §2, §3
(§5) The wells of the microplate, initially used for the determination of the MIC, were rinsed twice with 220 µL of phosphate-buffered solution (PBS) to remove loosely attached and planktonic bacteria. A total of 100 µL of fresh PBS and 100 µL of Bac-Titer Glo solution (G8231, Promega Italia S.r.l., Milan, Italy) were added to each well. After a 10 min incubation, a volume of 100 µL was transferred to a new microplate for luminescence determination as described above. As a general rule, the MBIC value was identified as the concentration at which a reduction of at least a log in the metabolic activity was observed.
The source holds these as a separate data set.

For assay [6], the system named is S. epidermidis cra4034 (SE 01). Conditions: cra4034 (SE 01, 24 h).
From the text: as §1, §2, §3, §5

Assay [7] relates to E. coli cra4038 (EC).
From the text: as §1, §2, §3, §5

Assay [8] relates to S. epidermidis cra4029 (SE 02). Conditions: cra4029 (SE 02, 24 h).
From the text: as §1, §2, §3, §5

Assay [9] deals with S. aureus cra4030 (SA 01). Conditions: cra4030 (SA 01, 24 h).
From the text: as §1, §2, §3, §5

Assay [10] relates to S. aureus ATCC 25923 (SA 00). Particulars: ATCC 25923, 24 h.
From the text: as §1, §2, §3, §5

Assay [11] relates to S. aureus cra2198 (SA 02). Conditions: cra2198 (SA 02, 24 h).
From the text: as §1, §2, §3, §5

In assay [12] the test system is P. aeruginosa cra3840 (PA 02).
From the text: as §1, §2, §3, §5

Assay [13] concerns E. coli cra4038 (EC).
From the text: as §1
as §2, with “II. […]” for “II.”
(§6) For assessing the MBC, 10 μL of bacterial suspensions was taken from wells corresponding to MIC, 2× MIC, and 4× MIC and then plated on MHA plates. […] The MBC was determined as the lowest dilution causing absence of bacterial colonies growth on the plate.
(§7) In order to assess the extent of the interference of the culture medium composition with the antibacterial activity of the three peptides, a “Rate of Abatement” of the bactericidal properties (RoA) was calculated using the following formula (Equation (1)):RoA = MBCMHB/MBC20% MHB(1)
(§8) RoA indicates the fold increases in the MBC when tested in undiluted medium […], i.e., with maximal interference of broth polyanionic substances, with respect to diluted medium […]. […] A more versatile measure to express the loss of activity was calculated as follows. […]
The source holds these as a separate data set.

Assay [14] deals with S. epidermidis cra4029 (SE 02).
From the text: as §1
as §2, with “II. […]” for “II.”
as §6, §7, §8
The source holds these as a separate data set.

Assay [15] relates to E. faecalis cra4033 (EF 02).
From the text: as §1
as §2, with “II. […]” for “II.”
as §6, §7, §8
The source holds these as a separate data set.

The term MIC denotes the smallest concentration in the dilution series that meets the test's criterion for growth inhibition. Lower therefore signals inhibition by little substance. Usually MBC stands for the smallest concentration meeting the test's criterion for killing. Low values mean more potent killing, high ones less potent killing.

Values after ≈ are worked out from the molar mass of the structure shown. Where a SMILES comes first, the peptide text is derived from it.

On to `CC(C)C[C@H](NC(=O)CN)C(=O)N[C@@H](CC(C)C)C(=O)N[C@@H](CCCNC(=N)N)C(=O)N[C@@H](C)C(=O)N[C@@H](CO)C(=O)N[C@@H](CO)C(=O)N[C@@H](CCCCN)C(=O)N[C@@H](Cc1c[nH]c2ccccc12)C(=O)NCC(=O)N[C@@H](CCCNC(=N)N)C(=O)N[C@@H](CCCCN)C(=O)N[C@@H](Cc1ccc(O)cc1)C(=O)N[C@@H](Cc1ccc(O)cc1)C(=O)N[C@H](C(=O)N[C@@H](CC(=O)O)C(=O)N[C@@H](CC(C)C)C(=O)N[C@@H](C)C(=O)NCC(=O)N[C@@H](CS)C(=O)N[C@@H](C)C(=O)N[C@@H](CCCCN)C(=O)N[C@@H](C)C(=O)O)C(C)C` [Dadapin-1] (H-GLLRASSKWGRKYYVDLAGCAKA-OH), for which the minimum inhibitory concentration (MIC) is over 500 µg/mL in [1], over 500 µg/mL in assay [2], 15.63 µg/mL (≈ 6.22 µM) in assay [3] and over 500 µg/mL in assay [4]. For the same compound, the MBC entry with entire panel of strains is “exceeded 500 μg/mL”; against E. coli cra4038 (EC) [13], 31.25 to 62.5 µg/mL; in assay [14] it was 15.63 µg/mL (≈ 6.22 µM); in assay [15], over 500 µg/mL. Moreover, the “LR, Log10 reduction in bacterial metabolism for a given MBIC” value in assay [5] (cra4024 (EF 01)) amounted to 3 LR; with E. coli cra4038 (EC) [7] (cra4038 (EC)) it was 2 LR; in [12] (cra3840 (PA 02)) it was 3 LR. Further, the MBIC in assay [5] (cra4024 (EF 01, 24 h)) was over 500 µg/mL; in assay [6] it was 3.91 to 7.81 µg/mL; in the assay with E. coli cra4038 (EC) [7] (cra4038 (EC, 24 h)), 15.63–31.25 (31.25) 2LR: 31.25 μg/mL; in assay [8], over 500 µg/mL; in [9], 7.81 to 15.63 µg/mL; in assay [10], 250 to 500 µg/mL. In addition, the MBIC in assay [11] is 500 µg/mL; in [12] (cra3840 (PA 02, 24 h)), over 500 µg/mL.

Values taken from publication PMC12386934, “Characteristics and Potential of KSL, KSL-W, and Dadapin-1 Antimicrobial Peptides for Preventing Infections of Orthopedic Prosthetic Devices: Identifying the Most Robust Candidate” (International Journal of Molecular Sciences, 2025).
